Blank lines part the entries; values can stand above or below the compound they belong to.
Tests used:
Assay in all cases: Caliper, Mobility shift assay off-chip
SYK (human) = SYK (human) (UniProt P43405)
RPS6KB1 (human) = RPS6KB1 (human) (UniProt P23443)
MAPK14 (human) = MAPK14 (human) (UniProt Q16539)
MAPK1 (human) = MAPK1 (human) (UniProt P28482)
[1] = tested on: FGFR2 (human), P21802 [N549H]
[2] = tested on: ABL1 (human), P00519 [Q252H]
FGFR4 (human) = FGFR4 (human) (UniProt P22455)
EGFR (human) = EGFR (human) (UniProt P00533)
EGFR (human), sequence (P00533 whole entry, looked up): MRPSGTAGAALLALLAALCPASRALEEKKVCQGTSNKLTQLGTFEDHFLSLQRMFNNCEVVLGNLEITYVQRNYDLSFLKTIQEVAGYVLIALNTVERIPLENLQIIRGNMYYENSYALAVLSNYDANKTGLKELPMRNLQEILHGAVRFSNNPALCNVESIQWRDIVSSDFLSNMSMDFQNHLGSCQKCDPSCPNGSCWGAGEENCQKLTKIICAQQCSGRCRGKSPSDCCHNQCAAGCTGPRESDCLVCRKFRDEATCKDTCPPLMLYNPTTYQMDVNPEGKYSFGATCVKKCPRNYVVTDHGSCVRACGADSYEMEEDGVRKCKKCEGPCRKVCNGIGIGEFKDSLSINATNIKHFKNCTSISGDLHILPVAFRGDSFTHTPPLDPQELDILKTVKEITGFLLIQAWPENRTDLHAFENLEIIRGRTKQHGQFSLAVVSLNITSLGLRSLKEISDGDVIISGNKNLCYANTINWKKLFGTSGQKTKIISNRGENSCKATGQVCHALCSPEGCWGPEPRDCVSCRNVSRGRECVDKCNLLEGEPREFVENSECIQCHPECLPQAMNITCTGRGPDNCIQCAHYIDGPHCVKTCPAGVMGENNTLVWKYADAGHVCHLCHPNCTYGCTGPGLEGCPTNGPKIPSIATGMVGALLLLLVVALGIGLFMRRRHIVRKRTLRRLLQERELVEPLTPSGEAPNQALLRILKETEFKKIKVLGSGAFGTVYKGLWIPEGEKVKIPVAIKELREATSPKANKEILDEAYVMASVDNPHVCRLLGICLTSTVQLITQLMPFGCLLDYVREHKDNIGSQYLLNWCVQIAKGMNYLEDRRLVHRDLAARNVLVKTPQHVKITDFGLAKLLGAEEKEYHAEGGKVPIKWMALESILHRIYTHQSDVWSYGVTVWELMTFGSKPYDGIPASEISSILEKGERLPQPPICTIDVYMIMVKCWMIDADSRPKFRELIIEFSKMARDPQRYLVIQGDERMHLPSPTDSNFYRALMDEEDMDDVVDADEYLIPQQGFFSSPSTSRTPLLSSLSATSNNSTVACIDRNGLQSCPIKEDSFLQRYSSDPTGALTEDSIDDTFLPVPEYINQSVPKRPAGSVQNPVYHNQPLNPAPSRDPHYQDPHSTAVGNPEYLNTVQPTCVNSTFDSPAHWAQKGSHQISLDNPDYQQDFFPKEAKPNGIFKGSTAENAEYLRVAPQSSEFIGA

IKBKB (human) = IKBKB (human) (UniProt O14920)
MAPK3 (human) = MAPK3 (human) (UniProt P27361)
NEK2 (human) = NEK2 (human) (UniProt P51955)
RPS6KA3 KD1 KD2 (human) = RPS6KA3 KD1 KD2 (human) (UniProt P51812)
MAPKAPK2 (human) = MAPKAPK2 (human) (UniProt P49137)
BMX (human) = BMX (human) (UniProt P51813)
[3] = tested on: ABL1 (human), P00519 [T315I]
[4] = tested on: ABL1 (human), P00519 [H396P]
PRKCB2 (human) = PRKCB2 (human) (UniProt P05771)
PRKCB2 (human), sequence (P05771 whole entry, looked up): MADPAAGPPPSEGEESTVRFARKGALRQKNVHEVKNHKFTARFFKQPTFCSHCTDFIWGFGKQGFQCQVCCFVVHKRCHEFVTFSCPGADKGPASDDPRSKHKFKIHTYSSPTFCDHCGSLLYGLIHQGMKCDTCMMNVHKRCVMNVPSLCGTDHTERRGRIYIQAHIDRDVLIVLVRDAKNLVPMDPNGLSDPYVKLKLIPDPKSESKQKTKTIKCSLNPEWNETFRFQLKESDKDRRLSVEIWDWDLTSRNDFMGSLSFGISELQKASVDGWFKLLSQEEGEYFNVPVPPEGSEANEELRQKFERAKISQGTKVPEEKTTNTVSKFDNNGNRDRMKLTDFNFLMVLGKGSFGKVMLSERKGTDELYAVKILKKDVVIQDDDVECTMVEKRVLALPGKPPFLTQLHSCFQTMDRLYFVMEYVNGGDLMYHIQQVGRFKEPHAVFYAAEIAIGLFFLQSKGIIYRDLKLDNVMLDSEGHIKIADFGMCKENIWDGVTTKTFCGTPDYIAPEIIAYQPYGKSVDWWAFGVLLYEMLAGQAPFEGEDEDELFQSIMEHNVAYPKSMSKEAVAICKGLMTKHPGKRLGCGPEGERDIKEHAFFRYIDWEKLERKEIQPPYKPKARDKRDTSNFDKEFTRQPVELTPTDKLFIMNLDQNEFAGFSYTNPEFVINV

MARK3 (human) = MARK3 (human) (UniProt P27448)
PRKCA (human) = PRKCA (human) (UniProt P17252)
FER (human) = FER (human) (UniProt P16591)
SGK2 (human) = SGK2 (human) (UniProt Q9HBY8)
CAMK4 (human) = CAMK4 (human) (UniProt Q16566)
PRKCB1 (human) = PRKCB1 (human) (UniProt P05771)
PRKCB1 (human), sequence (P05771 whole entry, looked up): as above

RPS6KA2 KD1 KD2 (human) = RPS6KA2 KD1 KD2 (human) (UniProt Q15349)
ROCK2 (human) = ROCK2 (human) (UniProt O75116)
MAPKAPK5 (human) = MAPKAPK5 (human) (UniProt Q8IW41)
PRKD1 (human) = PRKD1 (human) (UniProt Q15139)
AURKB (human) = AURKB (human) (UniProt Q96GD4)
CAMK2D (human) = CAMK2D (human) (UniProt Q13557)
CAMK2D (human), sequence (Q13557 whole entry, looked up): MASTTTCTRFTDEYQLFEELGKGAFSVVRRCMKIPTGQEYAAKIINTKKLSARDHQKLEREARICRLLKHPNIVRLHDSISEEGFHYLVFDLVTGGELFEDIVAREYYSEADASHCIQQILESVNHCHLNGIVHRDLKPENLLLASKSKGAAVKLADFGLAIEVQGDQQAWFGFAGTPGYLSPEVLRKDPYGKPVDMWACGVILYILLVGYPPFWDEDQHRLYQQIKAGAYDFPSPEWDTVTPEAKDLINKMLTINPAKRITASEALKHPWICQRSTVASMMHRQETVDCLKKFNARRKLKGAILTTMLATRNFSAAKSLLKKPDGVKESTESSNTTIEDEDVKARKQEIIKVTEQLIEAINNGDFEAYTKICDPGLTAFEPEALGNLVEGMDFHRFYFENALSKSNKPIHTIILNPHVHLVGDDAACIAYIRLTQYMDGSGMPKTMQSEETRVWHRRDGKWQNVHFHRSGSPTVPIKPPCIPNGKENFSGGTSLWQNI

RPS6KA5 KD1 KD2 (human) = RPS6KA5 KD1 KD2 (human) (UniProt O75582)
CSNK1A1 (human) = CSNK1A1 (human) (UniProt P48729)
INSR (human) = INSR (human) (UniProt P06213)
INSR (human), sequence (P06213 whole entry, looked up): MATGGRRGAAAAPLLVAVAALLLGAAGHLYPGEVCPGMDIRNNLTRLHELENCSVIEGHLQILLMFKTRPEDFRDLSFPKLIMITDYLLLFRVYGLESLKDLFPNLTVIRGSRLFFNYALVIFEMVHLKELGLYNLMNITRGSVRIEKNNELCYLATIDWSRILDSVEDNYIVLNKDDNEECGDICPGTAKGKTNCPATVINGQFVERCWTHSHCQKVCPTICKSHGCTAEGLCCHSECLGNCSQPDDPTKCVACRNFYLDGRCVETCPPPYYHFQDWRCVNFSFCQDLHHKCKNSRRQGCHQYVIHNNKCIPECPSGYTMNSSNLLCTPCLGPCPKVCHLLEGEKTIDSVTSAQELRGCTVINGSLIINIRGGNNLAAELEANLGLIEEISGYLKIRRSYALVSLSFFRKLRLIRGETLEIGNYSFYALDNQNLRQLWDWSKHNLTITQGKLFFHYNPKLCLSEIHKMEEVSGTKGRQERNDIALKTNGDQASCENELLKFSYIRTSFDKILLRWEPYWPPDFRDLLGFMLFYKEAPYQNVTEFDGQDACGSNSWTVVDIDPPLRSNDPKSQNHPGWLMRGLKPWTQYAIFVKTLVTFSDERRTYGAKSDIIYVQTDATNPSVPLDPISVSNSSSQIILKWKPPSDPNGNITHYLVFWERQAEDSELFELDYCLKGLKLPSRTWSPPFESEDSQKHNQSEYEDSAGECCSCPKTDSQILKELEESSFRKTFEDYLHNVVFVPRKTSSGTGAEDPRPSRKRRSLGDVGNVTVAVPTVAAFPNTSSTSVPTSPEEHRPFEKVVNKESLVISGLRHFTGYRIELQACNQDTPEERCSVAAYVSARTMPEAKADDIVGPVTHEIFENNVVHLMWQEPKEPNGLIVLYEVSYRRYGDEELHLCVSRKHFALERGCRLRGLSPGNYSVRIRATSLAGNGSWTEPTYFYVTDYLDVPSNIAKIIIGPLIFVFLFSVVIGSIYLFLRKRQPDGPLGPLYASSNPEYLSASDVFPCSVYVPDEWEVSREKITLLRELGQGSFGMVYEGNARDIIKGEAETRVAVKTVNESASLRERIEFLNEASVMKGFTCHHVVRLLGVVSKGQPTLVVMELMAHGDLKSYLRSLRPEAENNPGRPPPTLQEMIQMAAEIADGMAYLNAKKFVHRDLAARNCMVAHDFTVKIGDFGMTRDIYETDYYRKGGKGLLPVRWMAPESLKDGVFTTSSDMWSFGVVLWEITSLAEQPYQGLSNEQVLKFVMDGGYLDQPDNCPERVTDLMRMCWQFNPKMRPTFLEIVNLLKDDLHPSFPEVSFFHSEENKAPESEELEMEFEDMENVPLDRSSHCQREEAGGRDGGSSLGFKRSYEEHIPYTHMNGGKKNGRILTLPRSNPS

BTK (human) = BTK (human) (UniProt Q06187)
MARK2 (human) = MARK2 (human) (UniProt Q7KZI7)

RPS6KB1 (human), sequence (P23443 whole entry, looked up): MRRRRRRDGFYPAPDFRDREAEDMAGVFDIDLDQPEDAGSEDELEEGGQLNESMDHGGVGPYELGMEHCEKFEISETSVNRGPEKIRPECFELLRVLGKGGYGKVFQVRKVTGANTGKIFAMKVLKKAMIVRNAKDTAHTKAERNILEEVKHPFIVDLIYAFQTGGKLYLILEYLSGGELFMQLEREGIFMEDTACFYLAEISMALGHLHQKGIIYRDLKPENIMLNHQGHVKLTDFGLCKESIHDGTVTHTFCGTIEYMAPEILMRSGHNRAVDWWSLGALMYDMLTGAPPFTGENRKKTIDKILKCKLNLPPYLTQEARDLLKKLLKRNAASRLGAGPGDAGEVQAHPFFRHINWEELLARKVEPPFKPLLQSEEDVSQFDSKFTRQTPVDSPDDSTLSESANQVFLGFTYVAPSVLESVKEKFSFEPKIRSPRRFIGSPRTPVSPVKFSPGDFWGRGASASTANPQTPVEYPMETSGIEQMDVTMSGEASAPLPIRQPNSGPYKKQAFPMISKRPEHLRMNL

inhibition (SYK (human); compound 0.1 µM): 1.9%
inhibition (SYK (human); compound 1.0 µM): 7.6%
inhibition (RPS6KB1 (human); compound 0.1 µM): 10%
inhibition (RPS6KB1 (human); compound 1.0 µM): 13.5%
inhibition (MAPK14 (human); compound 0.1 µM): -13.9%
inhibition (MAPK14 (human); compound 1.0 µM): 6.9%
inhibition (MAPK1 (human); compound 0.1 µM): -5.5%
inhibition (MAPK1 (human); compound 1.0 µM): 0.8%
inhibition ([1]; compound 0.1 µM): 15.5%
inhibition ([1]; compound 1.0 µM): 40.5%
inhibition ([2]; compound 0.1 µM): -0.1%
inhibition ([2]; compound 1.0 µM): 24.9%
inhibition (FGFR4 (human); compound 0.1 µM): 21.1%
inhibition (FGFR4 (human); compound 1.0 µM): 19.6%
inhibition (EGFR (human); compound 0.1 µM): 13.3%
inhibition (EGFR (human); compound 1.0 µM): 9.2%
inhibition (IKBKB (human); compound 0.1 µM): -12%
inhibition (IKBKB (human); compound 1.0 µM): 4.2%
inhibition (MAPK3 (human); compound 0.1 µM): -0.7%
inhibition (MAPK3 (human); compound 1.0 µM): 3.6%
inhibition (NEK2 (human); compound 0.1 µM): -1.5%
inhibition (NEK2 (human); compound 1.0 µM): -7.5%
inhibition (RPS6KA3 KD1 KD2 (human); compound 0.1 µM): 1.2%
inhibition (RPS6KA3 KD1 KD2 (human); compound 1.0 µM): -1.7%
inhibition (MAPKAPK2 (human); compound 0.1 µM): -2.6%
inhibition (MAPKAPK2 (human); compound 1.0 µM): 8%
inhibition (BMX (human); compound 0.1 µM): 1.6%
inhibition ([3]; compound 0.1 µM): 1.4%
inhibition ([3]; compound 1.0 µM): 12.7%
inhibition ([4]; compound 0.1 µM): -0.9%
inhibition ([4]; compound 1.0 µM): 9.4%
inhibition (PRKCB2 (human); compound 0.1 µM): 2.6%
inhibition (PRKCB2 (human); compound 1.0 µM): -6%
inhibition (MARK3 (human); compound 0.1 µM): -2.4%
inhibition (MARK3 (human); compound 1.0 µM): -3.3%
inhibition (PRKCA (human); compound 0.1 µM): 3.1%
inhibition (FER (human); compound 0.1 µM): -53.2%
inhibition (FER (human); compound 1.0 µM): -24.2%
inhibition (SGK2 (human); compound 0.1 µM): -0.9%
inhibition (SGK2 (human); compound 1.0 µM): 23.1%
inhibition (CAMK4 (human); compound 0.1 µM): -1.6%
inhibition (CAMK4 (human); compound 1.0 µM): -6.4%
inhibition (PRKCB1 (human); compound 0.1 µM): -9.3%
inhibition (RPS6KA2 KD1 KD2 (human); compound 0.1 µM): -0.2%
inhibition (RPS6KA2 KD1 KD2 (human); compound 1.0 µM): 9%
inhibition (ROCK2 (human); compound 0.1 µM): 3%
inhibition (ROCK2 (human); compound 1.0 µM): 2%
inhibition (MAPKAPK5 (human); compound 0.1 µM): 1.3%
inhibition (MAPKAPK5 (human); compound 1.0 µM): -7.9%
inhibition (PRKD1 (human); compound 0.1 µM): -5.2%
inhibition (PRKD1 (human); compound 1.0 µM): 0.2%
inhibition (AURKB (human); compound 0.1 µM): 41.7%
inhibition (AURKB (human); compound 1.0 µM): 75%
inhibition (CAMK2D (human); compound 0.1 µM): 4.9%
inhibition (CAMK2D (human); compound 1.0 µM): 25.1%
inhibition (RPS6KA5 KD1 KD2 (human); compound 0.1 µM): 8%
inhibition (RPS6KA5 KD1 KD2 (human); compound 1.0 µM): 4.1%
inhibition (CSNK1A1 (human); compound 0.1 µM): -2.8%
inhibition (CSNK1A1 (human); compound 1.0 µM): -4.1%
inhibition (INSR (human); compound 0.1 µM): 12%
inhibition (INSR (human); compound 1.0 µM): 6.4%
SMILES: Cn1cc(-c2cnc3ccc4ccc(CS(N)(=O)=O)cc4c(=O)c3c2)cn1

inhibition (SYK (human); compound 0.01 µM): 1.3%
inhibition (SYK (human); compound 0.1 µM): -4.4%
inhibition (RPS6KB1 (human); compound 0.01 µM): 8%
inhibition (RPS6KB1 (human); compound 0.1 µM): 4.2%
inhibition (MAPK14 (human); compound 0.01 µM): -1.7%
inhibition (MAPK14 (human); compound 0.1 µM): -2.6%
inhibition (MAPK1 (human); compound 0.01 µM): -10.5%
inhibition (MAPK1 (human); compound 0.1 µM): -4.8%
inhibition ([1]; compound 0.01 µM): -3.9%
inhibition ([1]; compound 0.1 µM): 12.4%
inhibition ([2]; compound 0.01 µM): 2.5%
inhibition ([2]; compound 0.1 µM): 7.6%
inhibition (FGFR4 (human); compound 0.01 µM): -3%
inhibition (FGFR4 (human); compound 0.1 µM): 9.7%
inhibition (EGFR (human); compound 0.01 µM): -7.2%
inhibition (EGFR (human); compound 0.1 µM): -1%
inhibition (IKBKB (human); compound 0.01 µM): 3.8%
inhibition (IKBKB (human); compound 0.1 µM): -0.4%
inhibition (NEK2 (human); compound 0.01 µM): 0.9%
inhibition (NEK2 (human); compound 0.1 µM): -2.6%
inhibition (RPS6KA3 KD1 KD2 (human); compound 0.01 µM): -3.6%
inhibition (RPS6KA3 KD1 KD2 (human); compound 0.1 µM): -3.8%
inhibition (MAPKAPK2 (human); compound 0.01 µM): -0.8%
inhibition (MAPKAPK2 (human); compound 0.1 µM): -0.9%
inhibition (BMX (human); compound 0.01 µM): -1%
inhibition (BMX (human); compound 0.1 µM): -7.1%
inhibition ([3]; compound 0.01 µM): 0.6%
inhibition ([3]; compound 0.1 µM): 0.3%
inhibition ([4]; compound 0.01 µM): 2.2%
inhibition ([4]; compound 0.1 µM): 0.5%
inhibition (PRKCB2 (human); compound 0.01 µM): 1.4%
inhibition (PRKCB2 (human); compound 0.1 µM): 5.7%
inhibition (MARK3 (human); compound 0.01 µM): -3.5%
inhibition (MARK3 (human); compound 0.1 µM): -0.6%
inhibition (PRKCA (human); compound 0.01 µM): -5.5%
inhibition (PRKCA (human); compound 0.1 µM): 5.2%
inhibition (FER (human); compound 0.01 µM): -1%
inhibition (FER (human); compound 0.1 µM): 0.2%
inhibition (SGK2 (human); compound 0.01 µM): -1.3%
inhibition (SGK2 (human); compound 0.1 µM): -0.1%
inhibition (CAMK4 (human); compound 0.01 µM): 2.1%
inhibition (CAMK4 (human); compound 0.1 µM): 2.3%
inhibition (PRKCB1 (human); compound 0.01 µM): -6%
inhibition (PRKCB1 (human); compound 0.1 µM): 1.4%
inhibition (RPS6KA2 KD1 KD2 (human); compound 0.01 µM): 6.7%
inhibition (RPS6KA2 KD1 KD2 (human); compound 0.1 µM): 10.4%
inhibition (ROCK2 (human); compound 0.01 µM): 6.2%
inhibition (ROCK2 (human); compound 0.1 µM): 21.2%
inhibition (MAPKAPK5 (human); compound 0.01 µM): -2.5%
inhibition (MAPKAPK5 (human); compound 0.1 µM): 6.9%
inhibition (PRKD1 (human); compound 0.01 µM): -2.4%
inhibition (PRKD1 (human); compound 0.1 µM): 11.3%
inhibition (BTK (human); compound 0.01 µM): 8.4%
inhibition (BTK (human); compound 0.1 µM): 5.5%
inhibition (MARK2 (human); compound 0.01 µM): -2.5%
inhibition (MARK2 (human); compound 0.1 µM): -1.4%
inhibition (AURKB (human); compound 0.01 µM): -0.1%
inhibition (AURKB (human); compound 0.1 µM): 11.7%
inhibition (CAMK2D (human); compound 0.01 µM): 2.4%
inhibition (CAMK2D (human); compound 0.1 µM): -6.5%
inhibition (RPS6KA5 KD1 KD2 (human); compound 0.01 µM): 3.4%
inhibition (RPS6KA5 KD1 KD2 (human); compound 0.1 µM): -4.2%
inhibition (CSNK1A1 (human); compound 0.01 µM): -2.8%
inhibition (CSNK1A1 (human); compound 0.1 µM): 10.2%
inhibition (INSR (human); compound 0.01 µM): 3.1%
inhibition (INSR (human); compound 0.1 µM): 3.1%
SMILES: Cn1cc(-c2cnc3ccc4ccc(CS(=O)(=O)NC5CCCCC5)cc4c(=O)c3c2)cn1
